The values that follow come from patent US20250326749A1, “COMPOUNDS, COMPOSITIONS, AND METHODS OF USING THEREOF” (Sionna Therapeutics Inc., priority 2022, published 2025).

The target of this assay is T1, ΔF508-CFTR (Homo sapiens, UniProt P13569, DEL508-508).
T1 construct: expressed in transfected cells; host or cells: CFSMEo- (human CF submucosal gland epithelial cells, ΔF508/Q2X), transiently transfected by nucleofection
T1 sequence (P13569 with tags, fused parts or gaps DEL508-508): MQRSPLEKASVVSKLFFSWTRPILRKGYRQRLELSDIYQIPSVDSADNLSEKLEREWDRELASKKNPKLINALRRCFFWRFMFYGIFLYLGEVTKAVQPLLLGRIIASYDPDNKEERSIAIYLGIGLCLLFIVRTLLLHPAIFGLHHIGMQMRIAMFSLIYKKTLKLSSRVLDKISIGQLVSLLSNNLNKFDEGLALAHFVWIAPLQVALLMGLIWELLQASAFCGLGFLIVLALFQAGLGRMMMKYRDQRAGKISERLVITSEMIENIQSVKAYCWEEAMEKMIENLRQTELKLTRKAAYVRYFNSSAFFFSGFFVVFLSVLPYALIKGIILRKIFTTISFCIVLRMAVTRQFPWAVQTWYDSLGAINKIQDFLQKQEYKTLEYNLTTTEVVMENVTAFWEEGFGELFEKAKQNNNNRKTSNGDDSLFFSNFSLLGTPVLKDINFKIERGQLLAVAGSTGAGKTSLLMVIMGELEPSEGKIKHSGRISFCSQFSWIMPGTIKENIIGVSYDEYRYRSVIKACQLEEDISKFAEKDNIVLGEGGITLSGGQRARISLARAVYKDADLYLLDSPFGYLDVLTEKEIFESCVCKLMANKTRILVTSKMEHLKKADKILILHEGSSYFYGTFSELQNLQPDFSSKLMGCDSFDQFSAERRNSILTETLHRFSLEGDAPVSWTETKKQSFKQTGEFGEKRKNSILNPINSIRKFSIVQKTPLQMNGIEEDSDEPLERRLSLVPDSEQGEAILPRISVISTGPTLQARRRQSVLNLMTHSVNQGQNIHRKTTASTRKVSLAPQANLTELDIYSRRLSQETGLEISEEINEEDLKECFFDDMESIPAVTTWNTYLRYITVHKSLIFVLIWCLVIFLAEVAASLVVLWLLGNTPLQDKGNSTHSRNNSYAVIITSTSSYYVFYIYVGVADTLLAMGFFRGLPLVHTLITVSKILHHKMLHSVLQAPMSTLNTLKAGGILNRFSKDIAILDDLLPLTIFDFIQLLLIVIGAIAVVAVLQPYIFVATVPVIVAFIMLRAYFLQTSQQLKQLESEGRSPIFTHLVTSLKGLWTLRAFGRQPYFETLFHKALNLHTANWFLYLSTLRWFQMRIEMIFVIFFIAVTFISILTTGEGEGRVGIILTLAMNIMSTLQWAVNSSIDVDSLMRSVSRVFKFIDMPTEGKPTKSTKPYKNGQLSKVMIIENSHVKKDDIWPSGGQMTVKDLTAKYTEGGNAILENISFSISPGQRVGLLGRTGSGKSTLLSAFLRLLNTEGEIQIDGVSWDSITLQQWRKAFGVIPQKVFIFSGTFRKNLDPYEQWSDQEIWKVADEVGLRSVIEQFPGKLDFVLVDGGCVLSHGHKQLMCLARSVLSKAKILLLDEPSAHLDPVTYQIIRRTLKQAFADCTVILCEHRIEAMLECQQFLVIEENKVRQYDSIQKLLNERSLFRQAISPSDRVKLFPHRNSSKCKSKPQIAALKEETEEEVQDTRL
The assay can be described thus: ΔF508-CFTR-HRP trafficking assay (cell surface expression of ΔF508-CFTR). It counts as cell-based. As to conditions: CFSMEo- cells transiently transfected with ΔF508-CFTR-HRP; test agent 3 μM, 48 h; HRP chemiluminescence. From the text:
Test agents were screened for their effect on cell surface expression of ΔF508-CFTR using the ΔF508-CFTR-HRP trafficking assay. For this assay, a ΔF508-CFTR expression construct was designed with an in-frame insertion of a horseradish peroxidase (HRP) tag into the 4th extracellular loop of CFTR. The HRP tag would be presented extracellularly, in cells transiently transfected with the ΔF508-CFTR-HRP construct, following correction of the ΔF508-CFTR trafficking defect. The quantity of ΔF508-CFTR-HRP expressed on the plasma membrane could therefore be determined by measuring an HRP-dependent signal after the application of a cell-impermeable HRP substrate.
In brief, CF submucosal gland epithelial cells (CFSMEo-), derived from the airways of a CF patient (ΔF508/Q2X) and provided by Dr. Dieter Gruenert, University of California-San Francisco, were cultured at 37° C. with 5% CO2 in minimum essential medium (MEM) with Earle's salt and nonessential amino acids, supplemented with 10% (volume per volume [v/v]) fetal bovine serum, 2 mM L-glutamine and 1× (v/v) penicillin/streptomycin and grown in tissue culture-treated flasks coated with an extracellular matrix (ECM) cocktail consisting of 10 μg/mL human fibronectin, 30 μg/mL bovine collagen type I, and 100 μg/mL bovine serum albumin in LHC basal medium. These CFSMEo^− cells were transiently transfected with 4 μg of the ΔF508-CFTR-HRP expression construct using the Lonza 4D-Nucleofector Core unit (Lonza, Catalogue No. AAF-1002B) with the X unit (Lonza, Catalogue No. AAF-1002X) and SF Cell Line 4D-Nucleofector X Kit L (Lonza, Catalogue No. V4XC-2024) according to the manufacturer's instructions and plated at 1.2×10^4 cells/well onto collagen-coated, 96-well plates (Corning Inc.). Twenty-four h post-transfection, cells were treated with test agents, solubilized in DMSO at a concentration of 3 μM in replicates of 3, and allowed to incubate for 48 h. To detect HRP expression, cell culture media was removed, cells were washed with PBS and 100 μL of Luminata Forte HRP chemiluminescent substrate (EMD Millipore, Burlington, MA) was added to each well. Following a 5-minute incubation, chemiluminescence was measured in relative luminescent units (RLUs) using an EnVision plate reader (Perkin Elmer, Waltham, MA).
The ΔF508-CFTR-HRP trafficking data was normalized to the vehicle treated control (0.3% DMSO), followed by calculation of the mean, standard deviation, and standard error. If the test agent increased cell surface expression of ΔF508-CFTR-HRP relative to the vehicle-treated control, then that test agent was considered a ΔF508-CFTR corrector. Based on the description above, the biological activity of the examples in this disclosure is collected in Table 2.
Consider `C[C@H](Nc1cccc(-n2nc(C(F)(F)F)c3c2[C@@H](Oc2ccc(C(=O)O)cc2)CCC3)n1)c1ccc2c(c1)OC(F)(F)O2` (single isomer, unassigned) [Example 91], for which the “RLUs: ΔF508-CFTR-HRP trafficking data normalized to the vehicle treated control (0.3% DMSO)” value was “A (RLU 5.0 μM-10 μM)”.

Regarding `Cc1cc(OC2CCCc3c(C(F)(F)F)nn(-c4cccc(O[C@H](C)c5cc6c(cc5F)OC(F)(F)O6)c4)c32)ccc1C(=O)O` (single isomer, unassigned) [Example 34], the “RLUs: ΔF508-CFTR-HRP trafficking data normalized to the vehicle treated control (0.3% DMSO)” value was “B (RLU 3.5 μM-5.0 μM)”.

Consider `CC[C@H](Nc1cc(-n2nc(C(F)(F)F)c3c2[C@@H](Oc2ccc(C(=O)O)cc2)CCC3)ccn1)c1ccc2c(c1)OC(F)(F)O2` (single isomer, unassigned) [Example 88], for which the “RLUs: ΔF508-CFTR-HRP trafficking data normalized to the vehicle treated control (0.3% DMSO)” value is recorded as “C (RLU 0.0 μM-3.5 μM)”.

Regarding `C[C@H](Oc1cccc(-n2nc(C(F)(F)F)c3c2[C@@H](C(=O)N2CCC(C(=O)O)CC2)CCC3)c1)c1ccc2c(c1)OC(F)(F)O2` (single isomer, unassigned) [120 (P1)], the “RLUs: ΔF508-CFTR-HRP trafficking data normalized to the vehicle treated control (0.3% DMSO)” value is on record as “B (RLU 3.5 μM-5.0 μM)”.

Consider `C[C@H](Nc1cccc(-n2nc(C(F)(F)F)c3c2[C@H](OC24CC(C(=O)O)(C2)C4)CCC3)c1)c1cc2c(cc1F)OC(F)(F)O2` (single isomer, unassigned) [97 (P2)], for which the “RLUs: ΔF508-CFTR-HRP trafficking data normalized to the vehicle treated control (0.3% DMSO)” value was “C (RLU 0.0 μM-3.5 μM)”.

Consider `C[C@H](Oc1cccc(-n2nc(C(F)(F)F)c3c2[C@H](Oc2ccc(C(=O)O)cc2)CCC3)c1)c1ccc2c(c1)OC(F)(F)O2` (single isomer, unassigned) [Example 26], for which the “RLUs: ΔF508-CFTR-HRP trafficking data normalized to the vehicle treated control (0.3% DMSO)” value is “A (RLU 5.0 μM-10 μM)”.

Regarding `C[C@H](Oc1cncc(-n2nc(C(F)(F)F)c3c2C(Nc2ccc(C(=O)O)cc2)CCC3)c1)c1ccc2c(c1)OC(F)(F)O2` (stereo partly drawn) [Example 69, 4-[[1-[5-[(1S)-1-(2,2-difluoro-1,3-benzodioxol-5-yl)ethoxy]-3-pyridyl]-3-(trifluoromethyl)-4,5,6,7-tetrahydroindazol-7-yl]amino]benzoic acid], the “RLUs: ΔF508-CFTR-HRP trafficking data normalized to the vehicle treated control (0.3% DMSO)” value is “B (RLU 3.5 μM-5.0 μM)”.

As to `C[C@H](Oc1cncc(-n2nc(C(F)(F)F)c3c2[C@H](CN2CCC(C(=O)O)CC2)CCC3)c1)c1ccc2c(c1)OC(F)(F)O2` (single isomer, unassigned) [124 (P2)], the “RLUs: ΔF508-CFTR-HRP trafficking data normalized to the vehicle treated control (0.3% DMSO)” value is recorded as “B (RLU 3.5 μM-5.0 μM)”.

`C[C@H](Oc1cc(-n2nc(C(F)(F)F)c3c2[C@@H](Oc2ccc(C(=O)O)cc2)CCC3)ccc1F)c1ccc2c(c1)OC(F)(F)O2` (single isomer, unassigned) [Example 36]: the “RLUs: ΔF508-CFTR-HRP trafficking data normalized to the vehicle treated control (0.3% DMSO)” value is on record as “C (RLU 0.0 μM-3.5 μM)”.

Regarding `C[C@H](Oc1cc(-n2nc(C(F)(F)F)c3c2[C@@H](Oc2ccc(C(=O)O)cc2)CCC3)cnc1F)c1ccc2c(c1)OC(F)(F)O2` (single isomer, unassigned) [Example 68], the “RLUs: ΔF508-CFTR-HRP trafficking data normalized to the vehicle treated control (0.3% DMSO)” value is recorded as “C (RLU 0.0 μM-3.5 μM)”.

In the case of `C[C@@H](Oc1cc(-n2nc(C(F)(F)F)c3c2C(OC24CC(C(=O)O)(C2)C4)CCC3)ccn1)c1ccc2c(c1)OC(F)(F)O2` (some centres unmarked) [Example 40], the “RLUs: ΔF508-CFTR-HRP trafficking data normalized to the vehicle treated control (0.3% DMSO)” value is given as “A (RLU 5.0 μM-10 μM)”.

As to `C[C@H](Oc1cc(-n2nc(C(F)(F)F)c3c2[C@H](OC24CC(c5nc(=O)o[nH]5)(C2)C4)CCC3)ccc1F)c1cc2c(cc1F)OC(F)(F)O2` (single isomer, unassigned) [86 (P2)], the “RLUs: ΔF508-CFTR-HRP trafficking data normalized to the vehicle treated control (0.3% DMSO)” value is “C (RLU 0.0 μM-3.5 μM)”.

Consider `C[C@H](Oc1cccc(-n2nc(C(F)(F)F)c3c2C(S(=O)(=O)N2CCC(C(=O)O)CC2)CCC3)c1)c1ccc2c(c1)OC(F)(F)O2` (some centres unmarked) [Example 123], for which the “RLUs: ΔF508-CFTR-HRP trafficking data normalized to the vehicle treated control (0.3% DMSO)” value is “B (RLU 3.5 μM-5.0 μM)”.

Consider `C[C@H](Oc1cncc(-n2nc(C(F)(F)F)c3c2[C@@H](Oc2ccc(C(=O)O)cc2)CCC3)c1)c1ccc2c(c1)OC(F)(F)O2` (single isomer, unassigned) [Example 27], for which the “RLUs: ΔF508-CFTR-HRP trafficking data normalized to the vehicle treated control (0.3% DMSO)” value is “C (RLU 0.0 μM-3.5 μM)”.

As to `C[C@H](Oc1cc(-n2nc(C(F)(F)F)c3c2[C@H](OC24CC(CC(=O)O)(C2)C4)CCC3)ccc1F)c1ccc2c(c1)OC(F)(F)O2` (single isomer, unassigned) [78 (P2)], the “RLUs: ΔF508-CFTR-HRP trafficking data normalized to the vehicle treated control (0.3% DMSO)” value is “C (RLU 0.0 μM-3.5 μM)”.

Consider `C[C@H](Oc1cncc(-n2nc(C(F)(F)F)c3c2N(C[C@H]2CC[C@H](C(=O)O)CC2)CCC3)c1)c1ccc2c(c1)OC(F)(F)O2` [Example 13, Trans-4-[[1-[5-[(1S)-1-(2,2-difluoro-1,3-benzodioxol-5-yl)ethoxy]-3-pyridyl]-3-(trifluoromethyl)-5,6-dihydro-4H-pyrazolo[3,4-b]pyridine-7-yl]methyl]cyclohexanecarboxylic acid], for which the “RLUs: ΔF508-CFTR-HRP trafficking data normalized to the vehicle treated control (0.3% DMSO)” value was “B (RLU 3.5 μM-5.0 μM)”.

For the compound `C[C@H](Oc1cc(-n2nc(C(F)(F)F)c3c2[C@H](OC24CC(C(=O)O)(C2)C4)CCC3)cnn1)c1ccc2c(c1)OC(F)(F)O2` (single isomer, unassigned) [Example 63], the “RLUs: ΔF508-CFTR-HRP trafficking data normalized to the vehicle treated control (0.3% DMSO)” value is “B (RLU 3.5 μM-5.0 μM)”.

As for `C[C@H](Nc1cc(-n2nc(C#N)c3c2[C@H](OC24CC(C(=O)O)(C2)C4)CCC3)ccc1F)c1ccc2c(c1)OC(F)(F)O2` (single isomer, unassigned) [106 (P2)], the “RLUs: ΔF508-CFTR-HRP trafficking data normalized to the vehicle treated control (0.3% DMSO)” value is “C (RLU 0.0 μM-3.5 μM)”.

As to `C[C@H](Nc1cc(-n2nc(C#N)c3c2[C@@H](OC24CC(C(=O)O)(C2)C4)CCC3)ccc1F)c1ccc2c(c1)OC(F)(F)O2` (single isomer, unassigned) [106 (P1)], the “RLUs: ΔF508-CFTR-HRP trafficking data normalized to the vehicle treated control (0.3% DMSO)” value is reported as “B (RLU 3.5 μM-5.0 μM)”.

On to `C[C@@H](Oc1cc(-n2nc(C(F)(F)F)c3c2N(CC24CC(C(=O)O)(C2)C4)CCC3)cnn1)c1cc2c(cn1)OC(F)(F)O2` (single isomer, unassigned) [Example 1], for which the “RLUs: ΔF508-CFTR-HRP trafficking data normalized to the vehicle treated control (0.3% DMSO)” value is given as “C (RLU 0.0 μM-3.5 μM)”.

On to `C[C@H](Oc1nc(-n2nc(C(F)(F)F)c3c2[C@@H](O[C@H]2C[C@H](C(=O)O)C2)CCC3)ccc1F)c1cc2c(cc1F)OC(F)(F)O2` (single isomer, unassigned) [84 (P1)], for which the “RLUs: ΔF508-CFTR-HRP trafficking data normalized to the vehicle treated control (0.3% DMSO)” value is on record as “B (RLU 3.5 μM-5.0 μM)”.

In the case of `C[C@H](Oc1cc(-n2nc(C(F)(F)F)c3c2[C@H](OC24CC(C(=O)O)(C2)C4)CCC3)ccn1)c1ccc2c(c1)OC(F)(F)O2` [Example 52, 3-[[(7R)-1-[2-[(1S)-1-(2,2-difluoro-1,3-benzodioxol-5-yl)ethoxy]-4-pyridyl]-3-(trifluoromethyl)-4,5,6,7-tetrahydroindazol-7-yl]oxy]bicyclo[1.1.1]pentane-1-carboxylic acid], the “RLUs: ΔF508-CFTR-HRP trafficking data normalized to the vehicle treated control (0.3% DMSO)” value is listed as “C (RLU 0.0 μM-3.5 μM)”.

For the compound `C[C@@H](Oc1cc(-n2nc(C(F)(F)F)c3c2C(Oc2ccc(C(=O)O)cc2)CCC3)ccn1)c1ccc2c(c1)OC(F)(F)O2` (stereo partly drawn) [Example 21, 4-[[1-[2-[(1R)-1-(2,2-difluoro-1,3-benzodioxol-5-yl)ethoxy]-4-pyridyl]-3-(trifluoromethyl)-4,5,6,7-tetrahydroindazol-7-yl]oxy]benzoic acid], the “RLUs: ΔF508-CFTR-HRP trafficking data normalized to the vehicle treated control (0.3% DMSO)” value was “A (RLU 5.0 μM-10 μM)”.

For `C[C@H](Oc1cncc(-n2nc(C(F)(F)F)c3c2[C@@H](Oc2ccc(C(=O)O)cc2)CCC3)c1)c1cc2c(cc1F)OC(F)(F)O2` (single isomer, unassigned) [Example 36e], the “RLUs: ΔF508-CFTR-HRP trafficking data normalized to the vehicle treated control (0.3% DMSO)” value is on record as “A (RLU 5.0 μM-10 μM)”.

Take `C[C@H](Oc1cc(-n2nc(C(F)(F)F)c3c2[C@H](OC24CC(C(=O)O)(C2)C4)CCC3)cnc1F)c1cc2c(cc1F)OC(F)(F)O2` (single isomer, unassigned) [75 (P2)]: the “RLUs: ΔF508-CFTR-HRP trafficking data normalized to the vehicle treated control (0.3% DMSO)” value is listed as “C (RLU 0.0 μM-3.5 μM)”.

With `C[C@H](Oc1cc(-n2nc(C(F)(F)F)c3c2[C@@H](NC(=O)c2ccc(C(=O)O)cc2)CCC3)ccn1)c1ccc2c(c1)OC(F)(F)O2` (single isomer, unassigned) [Example 114], the “RLUs: ΔF508-CFTR-HRP trafficking data normalized to the vehicle treated control (0.3% DMSO)” value is given as “C (RLU 0.0 μM-3.5 μM)”.
